Source: PubChem BioAssay AID1963866 (Molecular Pharmacology Branch, DTP, NCI, 2024)

System: PDC KRAS tumor spheroids with HUVEC/MSC, viability
Test: Anticancer human tumor 349418-098-R-PDC patient-derived lung adenocarcinoma cell line growth inhibition [KRAS2]
Details: for IC50: curve of first compound; for viability, T/C: stronger effect = lower value
Method in brief: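 Combination screen of spheroid viability in tumor-cell co-cultures with endothelial (HUVEC) and mesenchymal stem cell stroma. Each agent was tested in half-log dilutions, topping at clinical Cmax or at 10 microM without a known Cmax.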

[1] = second compound 0.1 µM, first compound 0.01 µM
[2] = second compound 0.1 µM, first compound 0.0316 µM
[3] = second compound 0.1 µM, first compound 0.1 µM
[4] = second compound 0.1 µM, first compound 0.316 µM
[5] = second compound 0.1 µM, first compound 1 µM
[6] = second compound 0.1 µM, first compound 3.16 µM
[7] = second compound 0.316 µM, first compound 0.01 µM
[8] = second compound 0.316 µM, first compound 0.0316 µM
[9] = second compound 0.316 µM, first compound 0.1 µM
[10] = second compound 0.316 µM, first compound 0.316 µM
[11] = second compound 0.316 µM, first compound 1 µM
[12] = second compound 0.316 µM, first compound 3.16 µM
[13] = second compound 1 µM, first compound 0.01 µM
[14] = second compound 1 µM, first compound 0.0316 µM
[15] = second compound 1 µM, first compound 0.1 µM
[16] = second compound 1 µM, first compound 0.316 µM
[17] = second compound 1 µM, first compound 1 µM
[18] = second compound 1 µM, first compound 3.16 µM
[19] = second compound 3.16 µM, first compound 0.01 µM
[20] = second compound 3.16 µM, first compound 0.0316 µM
[21] = second compound 3.16 µM, first compound 0.1 µM
[22] = second compound 3.16 µM, first compound 0.316 µM
[23] = second compound 3.16 µM, first compound 1 µM
[24] = second compound 3.16 µM, first compound 3.16 µM
[25] = second compound 10 µM, first compound 0.01 µM
[26] = second compound 10 µM, first compound 0.0316 µM
[27] = second compound 10 µM, first compound 0.1 µM
[28] = second compound 10 µM, first compound 0.316 µM
[29] = second compound 10 µM, first compound 1 µM
[30] = second compound 10 µM, first compound 3.16 µM
[31] = second compound 0.1 µM, first compound 10 µM
[32] = second compound 0.316 µM, first compound 10 µM
[33] = second compound 1 µM, first compound 10 µM
[34] = second compound 3.16 µM, first compound 10 µM
[35] = second compound 10 µM, first compound 10 µM
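Further: spheroids exposed to compounds for seven days before readout.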

| SMILES | IC50 (second compound 0.1 µM) | IC50 (second compound 0.316 µM) | IC50 (second compound 1 µM) | IC50 (second compound 3.16 µM) | IC50 (second compound 10 µM) | viability, T/C [2] | viability, T/C [3] | viability, T/C [4] | viability, T/C [5] | viability, T/C [6] | viability, T/C [8] | viability, T/C [9] | viability, T/C [10] | viability, T/C [11] | viability, T/C [14] | viability, T/C [15] | viability, T/C [20] | viability, T/C [21] | viability, T/C [26] | viability, T/C [27] | other results |
| --- | --- | --- | --- | --- | --- | --- | --- | --- | --- | --- | --- | --- | --- | --- | --- | --- | --- | --- | --- | --- | --- |
| CC(=O)OC12COC1CC(O)C1(C)C(=O)C(O)C3=C(C)C(OC(=O)C(O)C(NC(=O)OC(C)(C)C)c4ccccc4)CC(O)(C(OC(=O)c4ccccc4)C21)C3(C)C (stereo not given) + CC1OCC2(CCN(c3cnc(Sc4ccnc(N)c4Cl)c(N)n3)CC2)C1N | < 0.01 µM | < 0.01 µM | < 0.01 µM | < 0.01 µM | < 0.01 µM | 28.1% | 21.9% | 27.2% | 28.7% | 36.1% | 22.9% | 29.1% | 27.9% | 29.7% | 26.9% | 27.5% | 28.4% | 22.5% | 24.5% | 28.3% | viability, T/C [1]: 18%; viability, T/C [7]: 21.6%; viability, T/C [12]: 35.2%; viability, T/C [13]: 22.4%; viability, T/C [16]: 27.6%; viability, T/C [17]: 33.9%; viability, T/C [18]: 43.5%; viability, T/C [19]: 21.5%; viability, T/C [22]: 25.4%; viability, T/C [23]: 26%; viability, T/C [24]: 28.3%; viability, T/C [25]: 19.9%; viability, T/C [28]: 24.1%; viability, T/C [29]: 31.7%; viability, T/C [30]: 38.5% |
| CN(C)C/C=C/C(=O)Nc1cc2c(Nc3ccc(F)c(Cl)c3)ncnc2cc1O[C@H]1CCOC1 + CC1OCC2(CCN(c3cnc(Sc4ccnc(N)c4Cl)c(N)n3)CC2)C1N | > 0.1 µM | > 0.1 µM | > 0.1 µM | > 0.1 µM | > 0.1 µM | 119% | 103% | – | – | – | 117% | 115% | – | – | 116% | 105% | 96% | 88.1% | 104% | 95.8% | viability, T/C (second compound 0.1 µM, first compound 0.000316 µM): 84.1%; viability, T/C (second compound 0.1 µM, first compound 0.001 µM): 95.7%; viability, T/C (second compound 0.1 µM, first compound 0.00316 µM): 105%; viability, T/C [1]: 114%; viability, T/C (second compound 0.316 µM, first compound 0.000316 µM): 106%; viability, T/C (second compound 0.316 µM, first compound 0.001 µM): 105%; viability, T/C (second compound 0.316 µM, first compound 0.00316 µM): 109%; viability, T/C [7]: 110%; viability, T/C (second compound 1 µM, first compound 0.000316 µM): 92.3%; viability, T/C (second compound 1 µM, first compound 0.001 µM): 111%; viability, T/C (second compound 1 µM, first compound 0.00316 µM): 97.4%; viability, T/C [13]: 107%; viability, T/C (second compound 3.16 µM, first compound 0.000316 µM): 99.1%; viability, T/C (second compound 3.16 µM, first compound 0.001 µM): 107%; viability, T/C (second compound 3.16 µM, first compound 0.00316 µM): 105%; viability, T/C [19]: 102%; viability, T/C (second compound 10 µM, first compound 0.000316 µM): 99.2%; viability, T/C (second compound 10 µM, first compound 0.001 µM): 117%; viability, T/C (second compound 10 µM, first compound 0.00316 µM): 108%; viability, T/C [25]: 110% |
| COC(=O)c1ccc2c(C(=Nc3ccc(N(C)C(=O)CN4CCN(C)CC4)cc3)c3ccccc3)c(O)[nH]c2c1 + CC1OCC2(CCN(c3cnc(Sc4ccnc(N)c4Cl)c(N)n3)CC2)C1N | 1.45 µM | 1.46 µM | 1.23 µM | 1.06 µM | 0.6 µM | 100% | 104% | 82.3% | 68.1% | 12.1% | 102% | 93.3% | 92.5% | 68.7% | 82.6% | 114% | 79.2% | 101% | 81.2% | 75.4% | viability, T/C [31]: 15.3%; viability, T/C [12]: 7.79%; viability, T/C [32]: 14.9%; viability, T/C [16]: 71.5%; viability, T/C [17]: 63.6%; viability, T/C [18]: 12.2%; viability, T/C [33]: 12.3%; viability, T/C [22]: 75.3%; viability, T/C [23]: 54.3%; viability, T/C [24]: 14%; viability, T/C [34]: 11.5%; viability, T/C [28]: 61.5%; viability, T/C [29]: 42.2%; viability, T/C [30]: 14.8%; viability, T/C [35]: 7.52% |
| O=C(c1cc(Cc2n[nH]c(=O)c3ccccc23)ccc1F)N1CCN(C(=O)C2CC2)CC1 + CC1OCC2(CCN(c3cnc(Sc4ccnc(N)c4Cl)c(N)n3)CC2)C1N | 4.71 µM | 3.27 µM | 4.24 µM | 2.8 µM | 1.45 µM | 95.9% | 89.7% | 89% | 81.3% | 63.5% | 78.8% | 82.6% | 77.3% | 78.5% | 107% | 97.3% | 90.8% | 84% | 80.9% | 72.8% | viability, T/C [31]: 25.3%; viability, T/C [12]: 50.6%; viability, T/C [32]: 29.2%; viability, T/C [16]: 81.8%; viability, T/C [17]: 59.9%; viability, T/C [18]: 66.7%; viability, T/C [33]: 33%; viability, T/C [22]: 68.6%; viability, T/C [23]: 70.6%; viability, T/C [24]: 48.3%; viability, T/C [34]: 23.9%; viability, T/C [28]: 59.2%; viability, T/C [29]: 56.6%; viability, T/C [30]: 44.1%; viability, T/C [35]: 29.7% |
